# Measurements published in patent US11053204B2, “Pyrimidinyloxy benzene derivatives as herbicides” (FMC Corporation, priority 2015, dated 2021).
# Experiments:
# Type in all cases: in vivo
# [1] = test system: blackgrass (Alopecurus myosuroides); experiment: Test C preemergence, plant response rating; details: Preemergence
# How it was run: (§1)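 Preemergence: seeds sown in loam–sand blend or silt loam and sprayed with test chemicals in a non-phytotoxic surfactant-containing solvent. Postemergence: potted plants at 2–18 cm (1–4-leaf stage) sprayed with the same formulation. After 13–15 d in greenhouse, visual rating versus controls on 0 (no effect) to 100 (complete control) scale.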
# [2] = test system: morningglory (Ipomoea coccinea); experiment: Test C preemergence, plant response rating; details: Preemergence
# How it was run: as §1
# [3] = test system: waterhemp (common waterhemp, Amaranthus rudis); experiment: Test C preemergence, plant response rating; details: Preemergence
# How it was run: as §1
# [4] = test system: foxtail, giant (giant foxtail, Setaria faberii); experiment: Test C preemergence, plant response rating; details: Preemergence
# How it was run: as §1
# [5] = test system: ragweed (common ragweed, Ambrosia elatior); experiment: Test C preemergence, plant response rating; details: Preemergence
# How it was run: as §1
# [6] = test system: crabgrass, large (large crabgrass, Digitaria sanguinalis); experiment: Test C preemergence, plant response rating; details: Preemergence
# How it was run: as §1
# soybean (Glycine max) = experiment: Test C preemergence, plant response rating; details: Preemergence
# How it was run: as §1
# [7] = test system: oilseed rape (Brassica napus); experiment: Test C preemergence, plant response rating; details: Preemergence
# How it was run: as §1
# [8] = test system: velvetleaf (Abutilon theophrasti); experiment: Test C preemergence, plant response rating; details: Preemergence
# How it was run: as §1
# [9] = test system: nutsedge, yellow (yellow nutsedge, Cyperus esculentus); experiment: Test C preemergence, plant response rating; details: Preemergence
# How it was run: as §1
# [10] = test system: lambsquarters (Chenopodium album); experiment: Test C preemergence, plant response rating; details: Preemergence
# How it was run: as §1
# corn (Zea mays) = experiment: Test C preemergence, plant response rating; details: Preemergence
# How it was run: as §1
# [11] = test system: wheat (winter wheat, Triticum aestivum); experiment: Test C preemergence, plant response rating; details: Preemergence
# How it was run: as §1
# [12] = test system: ryegrass, Italian (Italian ryegrass, Lolium multiflorum); experiment: Test C preemergence, plant response rating; details: Preemergence
# How it was run: as §1
# [13] = test system: chickweed (common chickweed, Stellaria media); experiment: Test C postemergence, plant response rating; details: for Chickweed plant response rating: scale 0 to 100 (0 no effect, 100 complete control)
# How it was run: as §1
# [14] = test system: morningglory (Ipomoea coccinea); experiment: Test C postemergence, plant response rating; details: for Morningglory plant response rating: scale 0 to 100 (0 no effect, 100 complete control)
# How it was run: as §1
# [15] = test system: foxtail, giant (giant foxtail, Setaria faberii); experiment: Test C postemergence, plant response rating; details: for Foxtail, Giant plant response rating: scale 0 to 100 (0 no effect, 100 complete control)
# How it was run: as §1
# [16] = test system: ducksalad (Heteranthera limosa); experiment: Test B flooded paddy test, plant response rating; details: 250 g ai/ha; Flood; scale of 0 to 100 where 0 is no effect and 100 is complete control; 13 to 15 days
# How it was run: (§2)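 Test compounds are applied straight into paddy water held 3 cm above the soil surface, with that flood maintained for the whole test. After 13 to 15 days in the greenhouse, each species is scored visually relative to controls.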
# rice (Oryza sativa) = experiment: Test B flooded paddy test, plant response rating; details: 250 g ai/ha; Flood; scale of 0 to 100 where 0 is no effect and 100 is complete control; 13 to 15 days
# How it was run: as §2
# [17] = test system: barnyardgrass (Echinochloa crus-galli); experiment: Test B flooded paddy test, plant response rating; details: 250 g ai/ha; Flood; scale of 0 to 100 where 0 is no effect and 100 is complete control; 13 to 15 days
# How it was run: as §2
# [18] = test system: sedge, umbrella (small-flower umbrella sedge, Cyperus difformis); experiment: Test B flooded paddy test, plant response rating; details: 250 g ai/ha; Flood; scale of 0 to 100 where 0 is no effect and 100 is complete control; 13 to 15 days
# How it was run: as §2
structure (smiles),measurement,setting,value
CCCCC(=O)c1c(Oc2ncc(Cl)cn2)cccc1C(F)(F)F [Compound 130],"Plant response rating, Blackgrass","[1]; 125 g ai/ha, scale of 0 to 100",85
same,"Plant response rating, Blackgrass","[1]; 16 g ai/ha, scale 0 to 100",30
same,"Plant response rating, Blackgrass","[1]; 31 g ai/ha, scale 0 to 100",30
same,"Plant response rating, Blackgrass","[1]; 62 g ai/ha, scale 0 to 100",60
same,"Plant response rating, Morningglory","[2]; 125 g ai/ha, scale of 0 to 100",10
same,"Plant response rating, Morningglory","[2]; 31 g ai/ha, scale 0 to 100",5
same,"Plant response rating, Morningglory","[2]; 62 g ai/ha, scale 0 to 100",20
same,"Plant response rating, Waterhemp","[3]; 125 g ai/ha, scale of 0 to 100",100
same,"Plant response rating, Waterhemp","[3]; 31 g ai/ha, scale 0 to 100",100
same,"Plant response rating, Waterhemp","[3]; 62 g ai/ha, scale 0 to 100",100
same,"Plant response rating, Foxtail, Giant","[4]; 125 g ai/ha, scale of 0 to 100",100
same,"Plant response rating, Foxtail, Giant","[4]; 31 g ai/ha, scale 0 to 100",70
same,"Plant response rating, Foxtail, Giant","[4]; 62 g ai/ha, scale 0 to 100",98
same,"Plant response rating, Ragweed","[5]; 125 g ai/ha, scale of 0 to 100",10
same,"Plant response rating, Ragweed","[5]; 31 g ai/ha, scale 0 to 100",0
same,"Plant response rating, Ragweed","[5]; 62 g ai/ha, scale 0 to 100",5
same,"Plant response rating, Crabgrass, Large","[6]; 125 g ai/ha, scale of 0 to 100",100
same,"Plant response rating, Crabgrass, Large","[6]; 16 g ai/ha, scale 0 to 100",98
same,"Plant response rating, Crabgrass, Large","[6]; 31 g ai/ha, scale 0 to 100",100
same,"Plant response rating, Crabgrass, Large","[6]; 62 g ai/ha, scale 0 to 100",100
same,"Plant response rating, Soybean","soybean (Glycine max); 125 g ai/ha, scale of 0 to 100",30
same,"Plant response rating, Soybean","soybean (Glycine max); 31 g ai/ha, scale 0 to 100",0
same,"Plant response rating, Soybean","soybean (Glycine max); 62 g ai/ha, scale 0 to 100",10
same,"Plant response rating, Oilseed Rape","[7]; 125 g ai/ha, scale of 0 to 100",95
same,"Plant response rating, Oilseed Rape","[7]; 31 g ai/ha, scale 0 to 100",10
same,"Plant response rating, Oilseed Rape","[7]; 62 g ai/ha, scale 0 to 100",40
same,"Plant response rating, Velvetleaf","[8]; 125 g ai/ha, scale of 0 to 100",85
same,"Plant response rating, Velvetleaf","[8]; 31 g ai/ha, scale 0 to 100",10
same,"Plant response rating, Velvetleaf","[8]; 62 g ai/ha, scale 0 to 100",75
same,"Plant response rating, Nutsedge, Yellow","[9]; 125 g ai/ha, scale of 0 to 100",0
same,"Plant response rating, Nutsedge, Yellow","[9]; 31 g ai/ha, scale 0 to 100",0
same,"Plant response rating, Nutsedge, Yellow","[9]; 62 g ai/ha, scale 0 to 100",0
same,"Plant response rating, Lambsquarters","[10]; 125 g ai/ha, scale of 0 to 100",95
same,"Plant response rating, Lambsquarters","[10]; 31 g ai/ha, scale 0 to 100",30
same,"Plant response rating, Lambsquarters","[10]; 62 g ai/ha, scale 0 to 100",35
same,"Plant response rating, Corn","corn (Zea mays); 125 g ai/ha, scale of 0 to 100",25
same,"Plant response rating, Corn","corn (Zea mays); 16 g ai/ha, scale 0 to 100",5
same,"Plant response rating, Corn","corn (Zea mays); 31 g ai/ha, scale 0 to 100",0
same,"Plant response rating, Corn","corn (Zea mays); 62 g ai/ha, scale 0 to 100",5
same,"Plant response rating, Wheat","[11]; 125 g ai/ha, scale of 0 to 100",0
same,"Plant response rating, Wheat","[11]; 31 g ai/ha, scale 0 to 100",0
same,"Plant response rating, Wheat","[11]; 62 g ai/ha, scale 0 to 100",5
same,"Plant response rating, Ryegrass, Italian","[12]; 125 g ai/ha, scale of 0 to 100",70
same,"Plant response rating, Ryegrass, Italian","[12]; 31 g ai/ha, scale 0 to 100",35
same,"Plant response rating, Ryegrass, Italian","[12]; 62 g ai/ha, scale 0 to 100",60
same,"Plant response rating, Chickweed","[13]; 16 g ai/ha, scale of 0 to 100",75
same,"Plant response rating, Chickweed","[13]; 31 g ai/ha, scale 0 to 100",75
same,Chickweed plant response rating,[13]; 62 g ai/ha,80
same,Chickweed plant response rating,[13]; 125 g ai/ha,90
same,"Plant response rating, Morningglory","[14]; 16 g ai/ha, scale of 0 to 100",10
same,"Plant response rating, Morningglory","[14]; 31 g ai/ha, scale 0 to 100",25
same,Morningglory plant response rating,[14]; 62 g ai/ha,65
same,Morningglory plant response rating,[14]; 125 g ai/ha,55
same,"Plant response rating, Foxtail, Giant","[15]; 16 g ai/ha, scale of 0 to 100",10
same,"Plant response rating, Foxtail, Giant","[15]; 31 g ai/ha, scale 0 to 100",10
same,"Foxtail, Giant plant response rating",[15]; 62 g ai/ha,10
same,"Foxtail, Giant plant response rating",[15]; 125 g ai/ha,30
same,"Plant response rating, Ducksalad",[16],40
same,"Plant response rating, Rice",rice (Oryza sativa),35
same,"Plant response rating, Barnyardgrass",[17],55
same,"Plant response rating, Sedge, Umbrella",[18],98
